Key:
[1] = test system: BT-474 cells; test: Annexin V/Sytox Green apoptosis assay (flow cytometry); type: cell-based, human; settings: BT-474, 72 hours, single drug
Description: Apoptosis assessment was made based on Annexin V and Sytox Green counterstaining. Studies followed the Life Technologies Apoptosis Assay protocol, with few modifications tailored to BT-474 cells. Briefly, cells were seeded at a concentration of 100×10^4 cells per 25 cm^2 cell culture flask in a total volume of 10 mL media, and allowed to adhere overnight. Media was then decanted and replaced with fresh media containing drug(s). Drugs were first dissolved in DMSO and further diluted in media such that cells were not exposed to more than 0.2 vol % DMSO. Cells were incubated in the presence of drug(s) for 72 hours. After drug exposure, cells were harvested at a concentration of 1×10^6 cells/mL in Annexin V binding buffer, and 200 μL of each sample were incubated with 5 μL of Annexin V-647 and 1 μL of 1 μM Sytox Green. After 15 minutes of dye incubation, cells were diluted 5× in ice cold Annexin V Binding Buffer, and immediately analyzed via flow cytometry in a Becton Dickinson FACSAria cell sorter (Franklin Lakes, NJ, USA). To quantify Annexin V-647 and Sytox Green fluorescence, a 633 nm laser with 660 PMT and a 488 nm laser with 530 PMT, respectively, were utilized. […]
Scatter plots obtained from flow cytometry of AnnexinV/Sytox Green counterstained cells were analyzed. These plots were utilized to quantify early apoptotic and late apoptotic/necrotic populations in FIG. 2. […]

[2] = test system: human breast cancer cell line BT-474; test: MTT cell viability and drug combination studies in BT-474 cells; type: cell-based; settings: BT-474, 72 hours, read-out: D50 (concentration of drug required to inhibit 50% cell growth)
Description: BT-474 or bEnd.3 cells were seeded in a 96-well cell culture plate at a density of 10,000 cells per well in a total volume of 100 μL/well and allowed to adhere overnight. Media was then replaced with fresh media containing drug(s). Drugs were first dissolved in DMSO, and then further diluted in full cell culture medium so as not to expose cells to more than 0.5 vol % DMSO. BT-474 cells were incubated with drug solutions for 72 hours, while bEnd.3 cells were exposed to drug solutions for 48 hours. […] To assess cell viability, the media was replaced with 0.5 mg/mL MTT in media and allowed to incubate for 4 hours. […] Formazan dye intensity was determined by absorbance measured at 570 nm in a Tecan Infinite M200 Pro plate reader (Männedorf, Switzerland). The fraction of inhibited cell growth was calculated by subtracting live cells in experimental wells from untreated control cells and normalizing against control cells. D50 refers to the concentration of drug required to inhibit 50% cell growth. Experimental cytotoxicity data were fitted to the median-effect model developed by Chou and Talalay to obtain in vitro cytotoxicity curves for each drug.

[3] = test system: small cell lung cancer; settings: patients with small cell lung cancer; cited from earlier work
[4] = test system: BT-474 cells; test: Internalization studies by confocal laser scanning microscopy; type: cell-based, human; settings: BT-474, 24 hrs
Description: To assess the effect of HA-conjugation on the internalization of CPT or DOX in BT-474 cells, confocal laser scanning microscopy was utilized. Cells were seeded at a density of 80,000 cells per 300 μL media in an 8-well chambered borosilicate coverglass (Nunc Lab-Tek), and were allowed to adhere overnight. Cells were exposed to the same drug concentration, the free drug D50, of either the free drug solution or the HA-conjugate form for 24 hrs at 37° C. and 5% CO2. Post-drug incubation, cells were washed twice with warmed PBS (pH 7.4), followed by staining with nuclear dyes at 37° C., 5% CO2. In the case of DOX-exposed cells, Hoechst nuclear dye was utilized at a concentration of 25 μg/mL for 30 minutes. For CPT-exposed cells, to avoid overlap fluorescence between CPT and nuclear marker, DRAQ5 was used to stain nuclei at a concentration of 5 μM in media for 60 minutes. Cells were washed twice more in warm PBS and finally suspended in media immediately prior to imaging. All cells were imaged live with an Olympus Fluoview 1000 spectral confocal equipped with a 60× silicon oil objective and a 37° C. temperature-controlled imaging chamber. […] Z-stacks of 10 μm were captured and subsequently analyzed with ImageJ 1.47h software (NIH). Each z-stack was collapsed into an averaged image, and fluorescence intensity was reported as the raw integrated density divided by number of cells. […]

| Structure (SMILES) | percentage of apoptotic cells [1] | IC50 [2] [µM] | overall response rate [3] [%] | intracellular distribution [4] |
| --- | --- | --- | --- | --- |
| CC[C@@]1(O)C(=O)OCc2c1cc1n(c2=O)Cc2cc3ccccc3nc2-1 [CPT, Camptothecin] | low percentages of apoptotic cells | 100 | – | – |
| COc1cccc2c1C(=O)c1c(O)c3c(c(O)c1C2=O)C[C@@](O)(C(=O)CO)C[C@@H]3O[C@H]1C[C@H](N)[C@H](O)[C@H](C)O1 [DOX, Doxorubicin] | – | – | > 20 | more diffuse and co-localized with cell nuclei |
